Results: ChEMBL document CHEMBL1132750, “The synthesis and biological evaluation of a novel series of phthalazine PDE4 inhibitors I” (Bioorg Med Chem Lett, 2000)

Legend:
Phosphodiesterase 4 [1] = molecular target: T1, Phosphodiesterase 4 (Homo sapiens, UniProt P27815+Q08499+Q07343+Q08493); assay: Inhibition of rolipram binding to PDE4 from human neutrophils; assay type: protein assay
Phosphodiesterase 4 [2] = molecular target: T1, Phosphodiesterase 4; assay: Inhibition of Phosphodiesterase 4 from human neutrophils; assay type: protein assay
Homo sapiens = species on record: Homo sapiens; assay: Inhibition of TNF alpha synthesis in human monocytes; assay type: functional
Canis familiaris = assay: Emetic effect in dogs after intravenous dose; assay type: functional; details: Canis lupus familiaris
Rattus norvegicus = species on record: Rattus norvegicus; assay: Increased acid secretion in isolated whole rat stomach; assay type: functional
Phosphodiesterase 4 [3] = molecular target: T1, Phosphodiesterase 4; assay: Inhibition of Phosphodiesterase 4 from human neutrophils at 10e-7 M; assay type: protein assay

Row | Structure (SMILES) | Ki (Phosphodiesterase 4 [1]) [nM] | IC50 (Phosphodiesterase 4 [2]) [nM] | IC50 (Homo sapiens) [nM] | ED50 (Canis familiaris) [µmol/kg] | IC50 (Rattus norvegicus) [nM] | inhibition (Phosphodiesterase 4 [3]) [%]
1 | COc1ccc2c(Cc3c(Cl)cncc3Cl)nncc2c1CCCCCc1ccccc1 | 320 | 30 | 103 |  |  | 
2 | COc1cc2cnnc(Cc3c(Cl)cncc3Cl)c2cc1OC1CCCC1 |  | 186 |  |  |  | 
3 | COc1ccc2c(Cc3c(Cl)cncc3Cl)nncc2c1OCCCCCc1ccccc1 | 13 | 57 | 83 |  |  | 
4 | COc1ccc2c(Cc3c(Cl)cncc3Cl)nncc2c1C#CCCCc1ccccc1 | 71 | 10 | 30 |  |  | 
5 | COc1ccc(C2CNC(=O)C2)cc1OC1CCCC1 (centres undefined) [ROLIPRAM] |  |  | 225 | 0.3 | 40 | 
6 | COc1ccc2c(Cc3c(Cl)cncc3Cl)nncc2c1/C=C/CCCc1ccccc1 | 164 | 19 | 52 |  |  | 
7 | COc1ccc2c(Cc3c(Cl)cncc3Cl)nncc2c1OC1CCOC1 (centres undefined) | 286 | 153 |  |  |  | 
8 | FC(F)Oc1ccc2c(Cc3c(Cl)cncc3Cl)nncc2c1OC1CCCC1 | 46 | 39 | 167 |  |  | 
9 | COc1ccc2c(Cc3c(Cl)cncc3Cl)n[n+]([O-])cc2c1OC1CCCC1 | 121 | 42 | 139 |  |  | 
10 | COc1ccc(C(=O)Nc2c(Cl)cncc2Cl)cc1OC1CCCC1 |  |  | 1.3 | 1 | 70 | 
11 | COc1ccc2c(Cc3c(Cl)cncc3Cl)nncc2c1OC1Cc2ccccc2C1 | 16 | 30 | 252 |  |  | 
12 | COc1ccc2c(Cc3c(Cl)cncc3Cl)nncc2c1OC1CCCC1 | 149 | 53 | 254 | > 10 | 7000 | 
13 | COc1cc2cnnc(Nc3c(Cl)cncc3Cl)c2cc1OC1CCCC1 |  |  |  |  |  | 7
14 | COc1ccc2c(Nc3c(Cl)cncc3Cl)nncc2c1OC1CCCC1 | 95 | 59 | 187 |  |  | 
